From ChEMBL document CHEMBL5729568, “Ras inhibitors” (2023)
Entries after “also recorded” stand apart in the source; their conditions may differ.

Assays:
[1] = (§1) Biochemical Assay: A variety of Ras proteins may be inhibited by compounds of the present invention (e.g., K-Ras, N-Ras, H-Ras, and mutants thereof at positions 12, 13 and 61, such as G12C, G12D, G12V, G12S, G13C, G13D, and Q61L, and others described herein). The purpose of this biochemical assay is to measure the ability of test compounds to covalently label nucleotide-loaded K-Ras isoforms. […] The sample is incubated at 25? C. for a time period of up to 24 hours prior to quenching by the addition of 10 uL of 5% Formic Acid. Quenched samples are centrifuged at 15000 rpm for 15 minutes in a benchtop centrifuge before injecting a 10 uL aliquot onto a reverse phase C4 column and eluting into the mass spectrometer with an increasing acetonitrile gradient in the mobile phase. Analysis of raw data may be carried out using Waters MassLynx MS software, with % bound calculated from the deconvoluted protein peaks for labeled and unlabeled K-Ras.
[2] = as §1; remark: listed apart in the source
[3] = as §1; remark: listed apart in the source
[4] = as §1; remark: listed apart in the source
[5] = as §1; remark: listed apart in the source
[6] = as §1; remark: listed apart in the source
[7] = as §1; remark: listed apart in the source

IC50 [1] | IC50 [2] | IC50 [3] | IC50 [4] | IC50 [5] | IC50 [6] | IC50 [7] | SMILES
in the range around 5.5 µM | in the range around 5.5 µM | in the range around 0.55 µM | > 10 µM | > 10 µM | in the range around 5.5 µM | in the range around 5.5 µM | C=CC(=O)C1CC[C@H](C(=O)C(C)[C@H](C(=O)N[C@H]2Cc3nc(cs3)-c3ccc4c(c3)c(c(-c3cccnc3C(C)OC)n4CC)CC(C)(C)COC(=O)[C@@H]3CCCN(N3)C2=O)C(C)C)C1 (some centres not stated)
> 10 µM | > 10 µM | in the range around 5.5 µM | > 10 µM | > 10 µM | in the range around 5.5 µM | in the range around 5.5 µM | C=CC(=O)N1CC(OC[C@H](C(=O)N[C@H]2Cc3cc(cc(C(F)F)c3)-c3ccc4c(c3)c(c(-c3cccnc3C(C)OC)n4CC)CC(C)(C)COC(=O)[C@@H]3CCCN(N3)C2=O)C(C)C)C1 (some centres not stated)
in the range around 5.5 µM | in the range around 5.5 µM | in the range around 0.055 µM | in the range around 5.5 µM | in the range around 5.5 µM | in the range around 0.55 µM | in the range around 0.55 µM | C=CC(=O)N1CC(OC[C@H](C(=O)N[C@H]2Cc3cccc(c3)-c3ccc4c(c3)c(c(-c3cccnc3C(C)OC)n4CC(F)(F)F)CC(C)(C)COC(=O)[C@@H]3CCCN(N3)C2=O)C(C)C)C1 (some centres not stated)
> 10 µM | > 10 µM | in the range around 0.55 µM | > 10 µM | > 10 µM | > 10 µM | > 10 µM | COC(C)c1ncccc1-c1c2c3cc(ccc3n1CC(F)(F)F)-c1cc(cc(C(F)F)c1)C[C@H](NC(=O)[C@@H](COC1CN(C(=O)C#CC(C)(C)N(C)C)C1)C(C)C)C(=O)N1CCC[C@H](N1)C(=O)OCC(C)(C)C2 (some centres not stated)
in the range around 5.5 µM | in the range around 0.55 µM | in the range around 0.55 µM | in the range around 5.5 µM | in the range around 0.55 µM | in the range around 0.55 µM | in the range around 0.055 µM | C=CC(=O)N1CCOC2(CCN(C(=O)N(C)[C@H](C(=O)N[C@H]3C[C@H]4CN(CCO4)c4ccc5c(c4)c(c(-c4cccnc4C(C)OC)n5CC)CC(C)(C)COC(=O)[C@@H]4CCCN(N4)C3=O)C(C)C)CC2)C1 (some centres not stated)
> 10 µM | > 10 µM | < 0.01 µM | > 10 µM | > 10 µM | > 10 µM | in the range around 5.5 µM | CCn1c(-c2cccnc2C(C)OC)c2c3cc(ccc31)N1CCO[C@@H](C[C@H](NC(=O)[C@@H](COC3CN(C(=O)C#CC(C)(C)N(C)C)C3)C(C)C)C(=O)N3CCC[C@H](N3)C(=O)OCC(C)(C)C2)C1 (some centres not stated)
> 10 µM | in the range around 5.5 µM | in the range around 0.55 µM | > 10 µM | in the range around 5.5 µM | > 10 µM | in the range around 5.5 µM | C=CC(=O)N1CC[C@H](C(=O)N(C)[C@H](C(=O)N[C@H]2C[C@H]3CN(CCO3)c3ccc4c(c3)c(c(-c3cccnc3C(C)OC)n4CC)CC(C)(C)COC(=O)[C@@H]3CCCN(N3)C2=O)C(C)C)C1 (some centres not stated)
in the range around 5.5 µM | in the range around 5.5 µM | < 0.01 µM | > 10 µM | in the range around 5.5 µM | in the range around 5.5 µM | in the range around 5.5 µM | COC(C)c1ncccc1-c1c2c3cc(ccc3n1CC(F)(F)F)-c1csc(n1)C[C@H](NC(=O)[C@@H](COC1CN(C(=O)C#CC(C)(C)N(C)C)C1)C(C)C)C(=O)N1CCC[C@H](N1)C(=O)OCC(C)(C)C2 (some centres not stated)
> 10 µM | > 10 µM | < 0.01 µM | > 10 µM | in the range around 5.5 µM | > 10 µM | in the range around 5.5 µM | COC(C)c1ncccc1-c1c2c3cc(ccc3n1CC(F)(F)F)N1CCO[C@@H](C[C@H](NC(=O)[C@@H](COC3CN(C(=O)C#CC(C)(C)N(C)C)C3)C(C)C)C(=O)N3CCC[C@H](N3)C(=O)OCC(C)(C)C2)C1 (some centres not stated)
> 10 µM | > 10 µM | in the range around 0.055 µM | > 10 µM | in the range around 5.5 µM | in the range around 5.5 µM | in the range around 5.5 µM | CCn1c(-c2cccnc2C(C)OC)c2c3cc(ccc31)-c1cccc(c1)C[C@H](NC(=O)[C@@H](COC1CN(C(=O)C#CC(C)(C)N3CCC3)C1)C(C)C)C(=O)N1CCC[C@H](N1)C(=O)OCC(C)(C)C2 (some centres not stated)
> 10 µM and in the range around 5.5 µM | in the range around 5.5 µM | < 0.01 µM | in the range around 5.5 µM | in the range around 5.5 µM | in the range around 5.5 µM | in the range around 5.5 µM | CCn1c(-c2cccnc2C(C)OC)c2c3cc(ccc31)-c1csc(n1)C[C@H](NC(=O)CCOC1CN(C(=O)C#CC(C)(C)N(C)C)C1)C(=O)N1CCC[C@H](N1)C(=O)OCC(C)(C)C2 (some centres not stated)
> 10 µM | > 10 µM | in the range around 0.055 µM | > 10 µM | in the range around 5.5 µM | in the range around 5.5 µM | in the range around 5.5 µM | CCn1c(-c2cccnc2C(C)OC)c2c3cc(ccc31)-c1cc(F)cc(c1)C[C@H](NC(=O)[C@@H](COC1CN(C(=O)C#CC(C)(C)N(C)C)C1)C(C)C)C(=O)N1CCC[C@H](N1)C(=O)OCC(C)(C)C2 (some centres not stated)
> 10 µM and in the range around 5.5 µM | in the range around 5.5 µM | in the range around 0.55 µM | in the range around 5.5 µM | in the range around 5.5 µM | in the range around 5.5 µM | in the range around 0.55 µM | C=CC(=O)N1CCO[C@H]2CN(C(=O)N(C)[C@H](C(=O)N[C@H]3C[C@H]4CN(CCO4)c4ccc5c(c4)c(c(-c4cccnc4C(C)OC)n5CC)CC(C)(C)COC(=O)[C@@H]4CCCN(N4)C3=O)C(C)C)C[C@H]21 (some centres not stated)
> 10 µM | in the range around 5.5 µM | < 0.01 µM | > 10 µM | in the range around 5.5 µM | in the range around 5.5 µM | in the range around 5.5 µM | COC(C)c1ncccc1-c1c2c3cc(ccc3n1CC(F)(F)F)-c1cccc(c1)C[C@H](NC(=O)[C@@H](COC1CN(C(=O)C#CC(C)(C)N(C)C)C1)C(C)C)C(=O)N1CCC[C@H](N1)C(=O)OCC(C)(C)C2 (some centres not stated)
> 10 µM | in the range around 5.5 µM | < 0.01 µM | > 10 µM | in the range around 5.5 µM | in the range around 5.5 µM | in the range around 5.5 µM | COC(C)c1ncccc1-c1c2c3cc(ccc3n1CC(F)(F)F)-c1cc(F)cc(c1)C[C@H](NC(=O)[C@@H](COC1CN(C(=O)C#CC(C)(C)N(C)C)C1)C(C)C)C(=O)N1CCC[C@H](N1)C(=O)OCC(C)(C)C2 (some centres not stated)
> 10 µM | in the range around 5.5 µM | in the range around 0.55 µM | > 10 µM | in the range around 5.5 µM | > 10 µM | in the range around 5.5 µM | C=CC(=O)N1CC[C@H](C(=O)N(C)C(C(=O)N[C@H]2C[C@H]3CN(CCO3)c3ccc4c(c3)c(c(-c3cccnc3C(C)OC)n4CC)CC(C)(C)COC(=O)[C@@H]3CCCN(N3)C2=O)C(C)C)C1 (some centres not stated)
in the range around 5.5 µM | in the range around 5.5 µM | < 0.01 µM | in the range around 5.5 µM | in the range around 5.5 µM | in the range around 0.55 µM | < 0.01 µM | C=CC(=O)Nc1ncc(C(=O)N(C)[C@H](C(=O)N[C@H]2Cc3cccc(c3)-c3ccc4c(c3)c(c(-c3cccnc3C(C)OC)n4CC)CC(C)(C)COC(=O)[C@@H]3CCCN(N3)C2=O)C(C)C)n1C (some centres not stated)
in the range around 5.5 µM | in the range around 5.5 µM | in the range around 0.55 µM | in the range around 5.5 µM | in the range around 5.5 µM | in the range around 0.55 µM | in the range around 0.055 µM | C=CC(=O)N1CCO[C@H]2CN(C(=O)N(C)[C@H](C(=O)N[C@H]3Cc4cc(C(F)F)cc(n4)-c4ccc5c(c4)c(c(-c4cccnc4C(C)OC)n5CC(F)(F)F)CC(C)(C)COC(=O)[C@@H]4CCCN(N4)C3=O)C(C)C)C[C@H]21 (some centres not stated)
in the range around 5.5 µM | in the range around 5.5 µM | – | – | in the range around 5.5 µM | in the range around 5.5 µM | in the range around 5.5 µM | C=C(C)C(=O)N1CC(N(C)C(=O)N(C)[C@H](C(=O)N[C@H]2Cc3nc(cs3)-c3ccc4c(c3)c(c(-c3cccnc3[C@H](C)OC)n4CC)CC(C)(C)COC(=O)[C@@H]3CCCN(N3)C2=O)C(C)C)C1 (atropisomer, axis not shown)
– | > 10 µM | > 10 µM | > 10 µM | > 10 µM | – | > 10 µM | C=CC(=O)N1CC[C@H](C(=O)N(C)[C@H](C(=O)N[C@H]2Cc3nc(ns3)-c3ccc4c(c3)c(c(-c3cncnc3[C@H](C)OC)n4CC)CC(C)(C)CC=C[C@@H]3CCCN(N3)C2=O)C(C)C)C1 (stereo in doubt)

SMILES | IC50 [1] | IC50 [2] | IC50 [3] | IC50 [4] | IC50 [5] | IC50 [6] | IC50 [7]
C=CC(=O)N1CC[C@H](C(=O)N(C)[C@H](C(=O)N[C@H]2Cc3cc(sn3)-c3ccc4c(c3)c(c(-c3cccnc3[C@H](C)OC)n4CC)CC(C)(C)COC(=O)[C@@H]3CCCN(N3)C2=O)C(C)C)C1 | in the range around 5.5 µM; also recorded: in the range around 550 nM | – | – | – | – | – | –
